The results in this text go back to paper PMC7070694, “Identification of New Peptides from Fermented Milk Showing Antioxidant Properties: Mechanism of Action” (Antioxidants, 2020).

Peptide text beside a SMILES is read from it.

The series in a line: MTT cell viability (cytotoxicity). As to conditions: human, Caco-2 cells (1 × 10^4), synthetic peptides 0.05 mg/mL, no TbOOH, mean ± SD of at least three experiments, read-out: Percentage of Cell Viability, None (c). The class given is cell-based.
In the case of `CC(C)C[C@H](NC(=O)[C@@H](NC(=O)[C@H](CCCCN)NC(=O)[C@H](CO)NC(=O)[C@H](CCC(N)=O)NC(=O)[C@@H](N)CO)C(C)C)C(=O)N1CCC[C@H]1C(=O)N[C@H](C(=O)N1CCC[C@H]1C(=O)N[C@@H](CCC(N)=O)C(=O)N[C@@H](CCCCN)C(=O)N[C@@H](C)C(=O)N[C@H](C(=O)N1CCC[C@H]1C(=O)N[C@@H](Cc1ccc(O)cc1)C(=O)N1CCC[C@H]1C(=O)N[C@@H](CCC(N)=O)C(=O)O)C(C)C)C(C)C` [S-17-Q] (H-SQSKVLPVPQKAVPYPQ-OH), the viability (in general, a read-out of living cells in per cent, often relative to untreated cells) at 24 h, 50 µg/mL turned out to be 101 ± 7.46%.

On to `CC[C@H](C)[C@H](NC(=O)CNC(=O)[C@H](Cc1ccc(O)cc1)NC(=O)[C@H](CO)NC(=O)[C@@H]1CCCN1C(=O)[C@H](Cc1ccc(O)cc1)NC(=O)[C@H](CCCNC(=N)N)NC(=O)[C@H](CO)NC(=O)[C@H](CC(C)C)NC(=O)[C@@H](NC(=O)[C@H](Cc1ccc(O)cc1)NC(=O)[C@@H](N)CCC(N)=O)C(C)C)C(=O)N[C@@H](CC(N)=O)C(=O)O` [Q-13-N] (H-QYVLSRYPSYGIN-OH), for which the viability at 24 h, 50 µg/mL was 104 ± 6.64%.

`CC[C@H](C)[C@H](NC(=O)[C@H](CCC(=O)O)NC(=O)CNC(=O)[C@@H]1CCCN1C(=O)[C@@H](NC(=O)[C@@H](N)CC(N)=O)C(C)C)C(=O)N[C@H](C(=O)N[C@@H](CCC(=O)O)C(=O)N[C@@H](CO)C(=O)N[C@@H](CC(C)C)C(=O)O)C(C)C` [N-10-L] (H-NVPGEIVESL-OH): the viability at 24 h, 50 µg/mL was found to be 120 ± 15.7%.

Take `CC(C)C[C@H](NC(=O)[C@H](Cc1ccc(O)cc1)NC(=O)[C@H](CCC(N)=O)NC(=O)[C@@H]1CCCN1C(=O)[C@H](CC(C)C)NC(=O)[C@H](C)N)C(=O)N[C@@H](CCCCN)C(=O)N[C@H](C(=O)N[C@H](C(=O)N[C@@H](Cc1ccc(O)cc1)C(=O)N[C@@H](CCC(N)=O)C(=O)N[C@@H](Cc1c[nH]cn1)C(=O)N[C@@H](CCC(N)=O)C(=O)N[C@@H](CCCCN)C(=O)O)C(C)C)[C@@H](C)O` [A-14-K] (H-ALPQYLKTVYQHQK-OH): the viability at 24 h, 50 µg/mL turned out to be 84.4 ± 9.69%.

With `CC(C)C[C@H](NC(=O)[C@H](CC(C)C)NC(=O)[C@H](CC(N)=O)NC(=O)[C@H](CCC(=O)O)NC(=O)[C@H](CC(N)=O)NC(=O)[C@H](CC(C)C)NC(=O)[C@@H](NC(=O)[C@H](CCC(=O)O)NC(=O)[C@H](CCC(N)=O)NC(=O)[C@@H]1CCCN1C(=O)[C@H](CC(C)C)NC(=O)CNC(=O)[C@H](CCC(N)=O)NC(=O)[C@H](Cc1c[nH]cn1)NC(=O)[C@@H](N)CCCCN)C(C)C)C(=O)O` [K-15-L] (H-KHQGLPQEVLNENLL-OH), the viability at 24 h, 50 µg/mL is 105 ± 14.5%.

In the case of `CC(C)[C@H](NC(=O)[C@H](CCC(=O)O)NC(=O)[C@@H]1CCCN1C(=O)[C@H](Cc1ccccc1)NC(=O)[C@@H]1CCCN1)C(=O)N[C@@H](Cc1ccccc1)C(=O)NCC(=O)N[C@@H](CCCCN)C(=O)N[C@@H](CCC(=O)O)C(=O)O` [P-9-E] (H-PFPEVFGKE-OH), the viability at 24 h, 50 µg/mL was 101 ± 14.5%.

On to `CSCC[C@H](NC(=O)[C@H](CCC(=O)O)NC(=O)[C@H](CCCCN)NC(=O)[C@@H](N)Cc1c[nH]cn1)C(=O)N1CCC[C@H]1C(=O)N[C@@H](Cc1ccccc1)C(=O)N1CCC[C@H]1C(=O)N[C@@H](CCCCN)C(=O)N[C@@H](Cc1ccc(O)cc1)C(=O)N1CCC[C@H]1C(=O)N[C@H](C(=O)N[C@@H](CCC(=O)O)C(=O)N1CCC[C@H]1C(=O)N[C@@H](Cc1ccccc1)C(=O)N[C@H](C(=O)N[C@@H](CCC(=O)O)C(=O)N[C@@H](CO)C(=O)N[C@@H](CCC(N)=O)C(=O)O)[C@@H](C)O)C(C)C` [H-18-Q] (H-HKEMPFPKYPVEPFTESQ-OH), for which the viability at 24 h, 50 µg/mL amounted to 91.9 ± 8.99%.

Turning to `CC[C@H](C)[C@H](NC(=O)[C@H](CCCCN)NC(=O)[C@@H](NC(=O)[C@@H](NC(=O)[C@@H]1CCCN1C(=O)[C@@H](NC(=O)CNC(=O)[C@@H](NC(=O)[C@H](CC(=O)O)NC(=O)[C@H](CC(=O)O)NC(=O)[C@H](CCCCN)NC(=O)[C@@H](N)CCC(=O)O)[C@@H](C)O)[C@@H](C)O)[C@@H](C)CC)[C@@H](C)O)C(=O)N[C@@H](CCC(=O)O)C(=O)N[C@@H](CC(C)C)C(=O)N[C@H](C(=O)N1CCC[C@H]1C(=O)N[C@@H](CO)C(=O)N[C@@H](Cc1c[nH]cn1)C(=O)O)C(C)C` [E-18-H] (H-EKDDTGTPITKIELVPSH-OH), the viability at 24 h, 50 µg/mL turned out to be 104 ± 5.01%.

On to `CC[C@H](C)[C@H](NC(=O)[C@@H](NC(=O)[C@H](CC(N)=O)NC(=O)[C@@H](NC(=O)[C@@H](NC(=O)[C@@H]1CCCN1C(=O)[C@@H](NC(=O)[C@H](CCC(=O)O)NC(=O)[C@@H](NC(=O)[C@H](CCCCN)NC(=O)[C@@H](N)CC(=O)O)[C@@H](C)O)[C@@H](C)CC)[C@@H](C)O)[C@@H](C)CC)[C@@H](C)O)C(=O)N[C@@H](C)C(=O)N[C@@H](CO)C(=O)NCC(=O)N[C@@H](CCC(=O)O)C(=O)N1CCC[C@H]1C(=O)N[C@H](C(=O)O)[C@@H](C)O` [D-17-T] (H-DKTEIPTINTIASGEPT-OH), for which the viability at 24 h, 50 µg/mL came out at 104 ± 5.62%.

Turning to `CC[C@H](C)[C@H](NC(=O)[C@H](CCCCN)NC(=O)[C@H](CCCCN)NC(=O)[C@H](CC(C)C)NC(=O)[C@@H](N)Cc1ccccc1)C(=O)N[C@@H](CO)C(=O)N[C@@H](CCC(N)=O)C(=O)N[C@@H](CCCNC(=N)N)C(=O)N[C@@H](Cc1ccc(O)cc1)C(=O)N[C@@H](CCC(N)=O)C(=O)N[C@@H](CCCCN)C(=O)N[C@@H](Cc1ccccc1)C(=O)O` [F-12-F] (H-FLKKISQRYQKF-OH), the viability at 24 h, 50 µg/mL came out at 97.7 ± 19.2%.

Consider `CSCC[C@H](NC(=O)[C@H](Cc1c[nH]c2ccccc12)NC(=O)[C@@H](N)CO)C(=O)N[C@@H](Cc1c[nH]cn1)C(=O)N[C@@H](CCC(N)=O)C(=O)N1CCC[C@H]1C(=O)N[C@@H](Cc1c[nH]cn1)C(=O)N[C@@H](CCC(N)=O)C(=O)N1CCC[C@H]1C(=O)N[C@@H](CC(C)C)C(=O)N1CCC[C@H]1C(=O)N1CCC[C@H]1C(=O)N[C@H](C(=O)O)[C@@H](C)O` [S-13-T] (H-SWMHQPHQPLPPT-OH), for which the viability at 24 h, 50 µg/mL was determined as 107 ± 12.4%.

As to `CC[C@H](C)[C@H](N)C(=O)N[C@@H](CC(N)=O)C(=O)N[C@@H](CC(N)=O)C(=O)N[C@@H](CCC(N)=O)C(=O)N[C@@H](Cc1ccccc1)C(=O)N[C@@H](CC(C)C)C(=O)N1CCC[C@H]1C(=O)N[C@@H](Cc1ccc(O)cc1)C(=O)N1CCC[C@H]1C(=O)N[C@@H](Cc1ccc(O)cc1)C(=O)N[C@@H](Cc1ccc(O)cc1)C(=O)N[C@@H](C)C(=O)N[C@@H](CCCCN)C(=O)N1CCC[C@H]1C(=O)N[C@@H](C)C(=O)O` [I-15-A] (H-INNQFLPYPYYAKPA-OH), the viability at 24 h, 50 µg/mL stood at 104 ± 5.12%.

Take `CC(C)C[C@H](NC(=O)[C@H](Cc1ccccc1)NC(=O)[C@@H]1CCCN1C(=O)[C@@H]1CCCN1C(=O)[C@@H](NC(=O)[C@@H](N)C(C)C)C(C)C)C(=O)N[C@@H](CCC(N)=O)C(=O)N1CCC[C@H]1C(=O)N[C@@H](CCC(=O)O)C(=O)O` [V-9-E] (H-VVPPFLQPE-OH): the viability at 24 h, 50 µg/mL was 107 ± 8.02%.

Turning to `CC[C@H](C)[C@H](N)C(=O)N[C@@H](CCC(N)=O)C(=O)N1CCC[C@H]1C(=O)N[C@@H](CCCCN)C(=O)N[C@H](C(=O)N[C@@H](CCCCN)C(=O)N[C@H](C(=O)N[C@H](C(=O)N1CCC[C@H]1C(=O)N[C@@H](Cc1ccc(O)cc1)C(=O)N[C@H](C(=O)N[C@@H](CCCNC(=N)N)C(=O)N[C@@H](Cc1ccc(O)cc1)C(=O)N[C@@H](CC(C)C)C(=O)O)C(C)C)[C@@H](C)CC)C(C)C)[C@@H](C)O` [I-14-L] (H-IQPKTKVIPYVRYL-OH), the viability at 24 h, 50 µg/mL came to 93 ± 13.6%.

In the case of `CC[C@H](C)[C@H](NC(=O)[C@H](CCC(N)=O)NC(=O)[C@H](C)NC(=O)[C@@H]1CCCN1C(=O)[C@H](CO)NC(=O)[C@H](CCCNC(=N)N)NC(=O)[C@@H](NC(=O)[C@H](C)N)C(C)C)C(=O)N[C@@H](CC(C)C)C(=O)N[C@@H](CCC(N)=O)C(=O)N[C@@H](Cc1c[nH]c2ccccc12)C(=O)N[C@@H](CCC(N)=O)C(=O)O` [A-12-Q] (H-AVRSPAQILQWQ-OH), the viability at 24 h, 50 µg/mL amounted to 102 ± 4.69%.

`CC(C)[C@H](NC(=O)[C@@H]1CCCN1C(=O)[C@H](Cc1ccc(O)cc1)NC(=O)[C@H](CCCCN)NC(=O)[C@@H]1CCCN1C(=O)[C@@H](N)Cc1ccccc1)C(=O)N[C@@H](CCC(=O)O)C(=O)N1CCC[C@H]1C(=O)N[C@@H](Cc1ccccc1)C(=O)O` [F-9-F] (H-FPKYPVEPF-OH): the viability at 24 h, 50 µg/mL turned out to be 109 ± 12.7%.

Regarding `CC[C@H](C)[C@H](NC(=O)[C@H](CCC(=O)O)NC(=O)[C@@H]1CCCN1C(=O)[C@@H]1CCCN1C(=O)[C@H](CO)NC(=O)[C@H](CCC(=O)O)NC(=O)[C@@H](NC(=O)[C@@H](N)C(C)C)[C@@H](C)CC)C(=O)N[C@@H](CC(N)=O)C(=O)N[C@H](C(=O)N[C@H](C(=O)N[C@@H](CCC(N)=O)C(=O)O)C(C)C)[C@@H](C)O` [V-12-Q] (H-VIESPPEINTVQ-OH), the viability at 24 h, 50 µg/mL was 113 ± 3.52%.

As to `CC[C@H](C)[C@H](NC(=O)[C@@H]1CCCN1C(=O)[C@@H](NC(=O)[C@H](Cc1ccc(O)cc1)NC(=O)[C@@H](N)CCCCN)[C@@H](C)CC)C(=O)N[C@@H](CCC(N)=O)C(=O)N[C@@H](Cc1ccc(O)cc1)C(=O)N[C@H](C(=O)N[C@@H](CC(C)C)C(=O)N[C@@H](CO)C(=O)O)C(C)C` [K-10-S] (H-KYIPIQYVLS-OH), the viability at 24 h, 50 µg/mL turned out to be 97.3 ± 6.69%.

As to `CC[C@H](C)[C@H](NC(=O)[C@@H]1CCCN1C(=O)CNC(=O)[C@@H]1CCCN1C(=O)[C@H](Cc1ccccc1)NC(=O)[C@@H]1CCCN1C(=O)[C@H](Cc1ccc(O)cc1)NC(=O)[C@@H](N)C(C)C)C(=O)N1CCC[C@H]1C(=O)N[C@@H](CC(N)=O)C(=O)O` [V-10-N] (H-VYPFPGPIPN-OH), the viability at 24 h, 50 µg/mL is 111 ± 9.93%.
